pIC50: −log10 of the molar value.
What was measured:
[1] = test system: Calu-1; experiment: Antiproliferative activity against human Calu-1 cells assessed as inhibition of cell growth incubated for 48 hrs by MTT assay; type: functional, cell-based; conditions: Calu-1, 48 h
[2] = test system: 786-0; experiment: Antiproliferative activity against human 786-0 cells assessed as inhibition of cell growth incubated for 48 hrs by MTT assay; type: functional, cell-based; conditions: 786-0, 48 h
[3] = Selectivity index, ratio of IC50 for antiproliferative activity against HEK293T cells to IC50 for antiproliferative activity against human HepG2 cells; type: toxicity, cell-based; conditions: HEK293T cells versus HepG2 cells, read-out: Ratio IC50
[4] = test system: HepG2; experiment: Potency index, ratio of vincristine IC50 to test compound IC50 for antiproliferative activity against human HepG2 cells assessed as inhibition of cell growth incubated for 48 hrs by MTT assay; type: functional
[5] = test system: HepG2; experiment: Antiproliferative activity against human HepG2 cells assessed as inhibition of cell growth incubated for 48 hrs by MTT assay; type: functional, cell-based; conditions: HepG2, 48 h
[6] = test system: HEK-293T; experiment: Antiproliferative activity against HEK293T cells assessed as inhibition of cell growth incubated for 48 hrs by MTT assay; type: functional, cell-based; conditions: Homo sapiens
[7] = test system: SK-BR-3; experiment: Antiproliferative activity against human SK-BR-3 cells assessed as inhibition of cell growth incubated for 48 hrs by MTT assay; type: functional, cell-based; conditions: SK-BR-3, 48 h
[8] = test system: SK-OV-3; experiment: Antiproliferative activity against human SK-OV-3 cells assessed as inhibition of cell growth incubated for 48 hrs by MTT assay; type: functional, cell-based; conditions: SK-OV-3, 48 h
[9] = test system: HepG2; experiment: Antiproliferative activity against human HepG2 cells assessed as inhibition of cell growth by MTT assay; type: functional, cell-based
[10] = test system: PC-12; experiment: Antiproliferative activity against PC-12 cells assessed as inhibition of cell growth incubated for 72 hrs by MTT assay; type: functional, cell-based; conditions: Rattus norvegicus, PC-12, 72 h
[11] = test system: SH-SY5Y; experiment: Antiproliferative activity against human SH-SY5Y cells assessed as inhibition of cell growth incubated for 72 hrs by MTT assay; type: functional, cell-based
[12] = test system: U-87 MG; experiment: Antiproliferative activity against human U-87 MG cells assessed as inhibition of cell growth incubated for 72 hrs by MTT assay; type: functional, cell-based, U-87MG ATCC
[13] = test system: A549; experiment: Antiproliferative activity against human A549 cells assessed as inhibition of cell growth incubated for 72 hrs by MTT assay; type: functional, cell-based; conditions: A549, 72 h
[14] = test system: MCF7; experiment: Antiproliferative activity against human MCF7 cells assessed as inhibition of cell growth incubated for 72 hrs by MTT assay; type: functional, cell-based; conditions: MCF7, 72 h
[15] = Cytotoxicity against human L02 cells assessed as inhibition of cell growth incubated for 72 hrs by MTT assay; type: toxicity, cell-based
[16] = test system: HCT-116; experiment: Antiproliferative activity against human HCT-116 cells assessed as inhibition of cell growth incubated for 72 hrs by MTT assay; type: functional, cell-based; conditions: HCT-116, 72 h
[17] = test system: U-118-MG; experiment: Antiproliferative activity against human U-118-MG cells assessed as inhibition of cell growth incubated for 72 hrs by MTT assay; type: functional, cell-based
[18] = test system: RPMI-7951; experiment: Antiproliferative activity against human RPMI-7951 cells assessed as inhibition of cell growth incubated for 24 hrs by MTT assay; type: functional, cell-based; conditions: RPMI-7951, 24 h
[19] = test system: MDA-MB-231; experiment: Antiproliferative activity against human MDA-MB-231 cells assessed as inhibition of cell growth incubated for 96 hrs by MTT assay; type: functional, cell-based; conditions: MDA-MB-231, 96 h
[20] = test system: HT-29; experiment: Antiproliferative activity against human HT-29 cells assessed as inhibition of cell growth incubated for 96 hrs by MTT assay; type: functional, cell-based; conditions: HT-29, 96 h
[21] = Cytotoxicity against human MCF-10A cells assessed as inhibition of cell growth incubated for 96 hrs by MTT assay; type: toxicity, cell-based
[22] = test system: HT-29; experiment: Antiproliferative activity against human HT-29 cells overexpressing carbonic anhydrase IX assessed as inhibition of cell growth incubated for 96 hrs under hypoxic condition by MTT assay; type: functional, cell-based; conditions: HT-29, 96 h
[23] = test system: NCI-H460; experiment: Antiproliferative activity against human NCI-H460 cells assessed as inhibition of cell growth incubated for 72 hrs by MTT assay; type: functional, cell-based; conditions: NCI-H460, 72 h
[24] = test system: HeLa; experiment: Antiproliferative activity against human HeLa cells assessed as inhibition of cell growth incubated for 72 hrs by MTT assay; type: functional, cell-based
[25] = test system: MDA-MB-231; experiment: Antiproliferative activity against human MDA-MB-231 cells assessed as inhibition of cell growth incubated for 72 hrs by MTT assay; type: functional, cell-based; conditions: MDA-MB-231, 72 h
[26] = test system: HT-29; experiment: Antiproliferative activity against human HT-29 cells assessed as inhibition of cell growth incubated for 72 hrs by MTT assay; type: functional, cell-based; conditions: HT-29, 72 h
[27] = test system: SK-MEL3; experiment: Antiproliferative activity against human SK-MEL3 cells assessed as inhibition of cell growth incubated for 24 hrs by MTT assay; type: functional, cell-based; conditions: SK-MEL3, 24 h
[28] = test system: A549; experiment: Antitumor activity against human A549 cells xenografted in nude mouse assessed as tumor growth inhibition rate relative to control; type: functional
[29] = test system: A549; experiment: Antiproliferative activity against human A549 cells assessed as inhibition of cell growth incubated for 96 hrs by MTT assay; type: functional, cell-based; conditions: A549, 96 h
[30] = Antiproliferative activity against mouse Lewis lung carcinoma cell line assessed as inhibition of cell growth incubated for 48 hrs by MTT assay; type: functional, cell-based

What does the source list for `C[C@H]1[C@H](N2CCN(P(=O)(OCc3cncs3)N(CCCCl)CCCCl)CC2)O[C@@H]2O[C@@]3(C)CC[C@H]4[C@H](C)CC[C@@H]1[C@@]24OO3` (some centres not stated)?
pIC50 [1]: 4.90; pIC50 [2]: 4.90; selectivity ratio [3]: 16; Ratio IC50 [4]: 7.4; pIC50 [5]: 4.90; pIC50 [6]: 4.90; pIC50 [7]: 4.90; pIC50 [8]: 4.90

With `CCCCCCCCCCCCOC(=O)C[C@H]1O[C@@H]2O[C@@]3(C)CC[C@H]4[C@H](C)CC[C@@H]([C@H]1C)[C@@]24OO3` as the compound, how does the pIC50 [9] read?
Its pIC50 is 6.14.

With `C[C@@H]1CC[C@H]2[C@@H](C)C(N3CCN(C(=O)Oc4ccc(SC(F)(F)F)cc4)CC3)O[C@@H]3O[C@@]4(C)CC[C@@H]1[C@]32OO4` (some centres not stated) as the compound, how does the pIC50 [10] read?
Its pIC50 is no more than 6.92.

And the pIC50 [11]?
Its pIC50 is no more than 6.92.

And the pIC50 [12]?
The pIC50 was no more than 6.92.

What about the pIC50 [13] of the same compound?
Its pIC50 is no more than 6.92.

What about the pIC50 [14] of the same compound?
Its pIC50 is no more than 6.92.

What about the IC50 at 72 h [15] of the same compound?
The IC50 at 72 h was 12.5 µM.

What about the pIC50 [16] of the same compound?
Its pIC50 is 6.92.

What about the pIC50 [17] of the same compound?
The pIC50 was no more than 6.92.

With `CCCCCCCCNC(=O)C[C@H]1O[C@@H]2O[C@@]3(C)CC[C@H]4[C@H](C)CC[C@@H]([C@H]1C)[C@@]24OO3` as the compound, how does the pIC50 [9] read?
Its pIC50 is 5.02.

With `C[C@H]1[C@H](OC(=O)CCC(=O)NCCc2ccc(OC(=O)CCC(=O)O[C@@H]3O[C@@H]4O[C@@]5(C)CC[C@H]6[C@H](C)CC[C@@H]([C@H]3C)[C@@]46OO5)cc2)O[C@@H]2O[C@@]3(C)CC[C@H]4[C@H](C)CC[C@@H]1[C@@]24OO3` as the compound, how does the pIC50 [18] read?
Its pIC50 is 5.61.

With `C[C@H]1[C@@H](OCCc2cn(-c3ccc(S(N)(=O)=O)cc3)nn2)O[C@@H]2O[C@@]3(C)CC[C@H]4[C@H](C)CC[C@@H]1[C@@]24OO3` as the compound, how does the pIC50 [19] read?
Its pIC50 is 5.72.

And the pIC50 [20]?
Its pIC50 is 5.72.

What about the IC50 at 96 h [21] of the same compound?
The IC50 at 96 h was 78 µM.

And the pIC50 [22]?
Its pIC50 is 6.19.

Which results are given for `COc1ccc(OC)c(/C=C/C(=O)c2ccc(OCC(=O)N[C@@H]3O[C@@H]4O[C@@]5(C)CC[C@H]6[C@H](C)CC[C@@H]([C@H]3C)[C@@]46OO5)cc2)c1`?
pIC50 [23]: 6.72; pIC50 [24]: 6.72; pIC50 [25]: 6.72; pIC50 [26]: 6.72

With `CCCCCCCCCCCCC(=O)C[C@H]1O[C@@H]2O[C@@]3(C)CC[C@H]4[C@H](C)CC[C@@H]([C@H]1C)[C@@]24OO3` as the compound, how does the pIC50 [9] read?
The pIC50 was 5.85.

With `COc1cc(/C=C\C(=O)CC(=O)/C=C\c2ccc(OC(=O)O[C@@H]3O[C@@H]4O[C@@]5(C)CC[C@H]6[C@H](C)CC[C@@H]([C@H]3C)[C@@]46OO5)c(OC)c2)ccc1OC(=O)CCC(=O)O[C@@H]1O[C@@H]2O[C@@]3(C)CC[C@H]4[C@H](C)CC[C@@H]([C@H]1C)[C@@]24OO3` as the compound, how does the pIC50 [27] read?
The pIC50 was 5.52.

With `COc1ccc(OC)c(/C=C/C(=O)c2ccc(OCC(=O)N[C@H]3O[C@@H]4O[C@@]5(C)CC[C@H]6[C@H](C)CC[C@@H]([C@H]3C)[C@@]46OO5)cc2)c1` as the compound, how does the pIC50 [23] read?
The pIC50 was 6.92.

What about the pIC50 [24] of the same compound?
The pIC50 was 6.92.

And the pIC50 [25]?
The pIC50 was 6.92.

What about the pIC50 [26] of the same compound?
The pIC50 was 6.92.

With `C[C@@H]1CC[C@H]2[C@@H](C)C(=O)O[C@@H]3O[C@@]4(C)CC[C@@H]1[C@]32OO4` [ARTEMISININ] as the compound, how does the pIC50 [9] read?
The pIC50 was 4.01.

With `C[C@H]1[C@@H](O)O[C@@H]2O[C@@]3(C)CC[C@H]4[C@H](C)CC[C@@H]1[C@@]24OO3` [ARTENIMOL] as the compound, how does the “inhibition (INH)” value [28] read?
Its value is 54.3%.

And the pIC50 [29]?
Its pIC50 is 6.64.

And the pIC50 [30]?
The pIC50 was 4.27.
